“Also recorded” adds a separate entry of the source.
Assays:
[1] = molecular target: T1, Factor VIIa (Homo sapiens, UniProt P08709); assay: amidolytic assay of Factor VIIa bound to Fn-TF or TF 1-218; format: biochemical; conditions: Factor VIIa 5nM, chromozym t-PA
T1 sequence (P08709 61-212 limits assumed): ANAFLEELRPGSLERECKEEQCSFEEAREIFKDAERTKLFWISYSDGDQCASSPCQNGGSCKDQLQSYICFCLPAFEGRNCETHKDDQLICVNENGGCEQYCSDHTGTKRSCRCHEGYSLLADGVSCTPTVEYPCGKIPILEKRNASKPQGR
T1 sequence (P08709 213-466 limits assumed): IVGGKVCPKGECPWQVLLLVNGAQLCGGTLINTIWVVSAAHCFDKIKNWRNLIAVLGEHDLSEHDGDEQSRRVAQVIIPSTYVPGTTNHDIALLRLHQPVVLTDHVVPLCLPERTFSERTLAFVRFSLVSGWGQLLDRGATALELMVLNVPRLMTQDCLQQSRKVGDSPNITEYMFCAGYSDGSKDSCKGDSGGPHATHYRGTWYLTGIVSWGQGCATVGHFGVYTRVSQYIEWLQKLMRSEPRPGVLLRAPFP
Procedure: The catalytic activity of Factor VIIa bound to Fn-TF for a peptidyl substrate was analyzed by hydrolysis of chromozym t-Pa (Boehringer Mannheim) and compared with that of the soluble TF 1-218. Varying concentrations TF 1-218 or Fn-TF were incubated with Factor VIIa at a final concentration of 5nM in the presence of 5 mM Ca^++ at ambient temperature for 15 minutes. Chromozym t-PA was added to a concentration of 1 mM. The initial rate of hydrolysis was measured at 406 nm with a kinetic micro-titer plate reader for 1 minute.

[2] = system: Factor X; assay: proteolytic activity of TF construct:Factor VIIa complexes toward Factor X; format: biochemical; conditions: soluble complexes, increasing concentration
Procedure: The proteolytic activities of both Fn-TF:Factor VIIa and TF 1-218:Factor VIIa complexes toward Factor X were determined by a functional assay (Schullek, Ruf et al. 1994) using Spectrozyme Factor Xa to assess Factor Xa generation. Briefly, varying concentrations of Fn-TF and TF1-218 were pre-incubated with Factor VIIa (75 nM) for 5 minutes at 37° C. in the presence of 5 mM CaCl2. The reaction was initiated by addition of substrate Factor X (1.5 uM). After incubation for 10 minutes at 37° C., the reaction was terminated by adding EDTA to a concentration of 0.1M. The amount of Factor Xa generated was determined by measuring Factor Xa amidolytic activity using […] of the chromogenic substrate Spectrozyme Fxa (American Diagnostica, Greenwich, Conn.). The rate of absorbance increase at 405 nM was measured in a kinetic micro-titer plate reader.
The effect of the fused docking structure on the proteolytic activity of TF:VIIa was studied by a linked functional assay (Schullek, Ruf et al. 1994). Varying concentrations of Fn-TF or TF1-218 were allowed to bind to 10 pM Factor VIIa for 5 minutes. […] The reaction was stopped by addition of 50 mM EDTA and the amount of Factor Xa generated was determined by measuring the Factor Xa amidolytic activity in the assay mixture using spetrozyme FXa as described above.

[3] = system: integrin-expressing CHO K1 cells; assay: cell-mediated coagulation assay with CHO K1 cells and human plasma; format: cell-based
Procedure: Coagulation assays were performed using an established procedure with some modifications to include a step for binding Tissue Factor constructs to cells. Platelet depleted, citrated human plasma pooled from multiple donors was used for these experiments. Cells are dislodged with trypsin free cell dissociation buffer (Gibco), and washed twice with TBS. Cells were then counted with cytometer. Only cells with viability greater than 90% were used for the assay. Varying concentrations of thrombogen were incubated with 10^5 cells in 100 ul TBS containing Ca^++ 10 mM and Mg^++ 5 mM for 15 minutes at 37° C. The assays were initiated by addition of 100 ul of pooled citrated plasma pre-warmed to 37° C. Clotting times were recorded as the interval between assay initiation and clot appearance.
Activation of the coagulation cascade was measured using a coagulation assay. Varying concentrations of Fn-TF or Tissue Factor were incubated with CHO K1 cells for 15 minutes. Coagulation assays were initiated with addition of 100 ul of pooled normal human plasma. The coagulation time was recorded as the interim between the initiation of assay and the appearance of the first fibrin strands.

[4] = system: integrin on CHO cells; assay: binding of Fn-TF to integrin-expressing CHO K1 cells (Western blot); conditions: for association with CHO cells: varying concentrations, 10^5 CHO K1 cells
Procedure: The binding of the Fn-TF protein to the integrin on CHO cells was monitored through direct incubation of varying concentrations of recombinant Fn-TF with 10^5 CHO K1 cells in TBS, 10 mM CaCl2, 5 mM MgSO4. The bound and unbound proteins were separated by centrifugation, and the bound Tissue Factor immunoreactivity was detected by Western blot. The amount of Tissue Factor bound was quantified by comparing the intensity of resulting bands on the membrane to that of a standard curve of Tissue Factor protein of known concentration using a densitometer.

[5] = median lethal dose in mice; format: in vivo; conditions: 20 gm Balb/C mice
[6] = system: LnCap cells; assay: cell proliferation and viability assay (trypan blue); conditions: without / with D-β-E 0.1 uM
Procedure: A cell proliferation and viability assay was employed to assess DβE inhibitor activity using trypan blue staining. LnCap cells (4×10^4 cells/well) were seeded in 96 well plates. Different concentrations of the DβE inhibitor or the Asp-Glu (D-E) substrate were added to the media as indicated. The % cell viability was determined 48 hours after treatment as the number of living cells (unstained) divided by total cells count (stain+unstained cells).
A cell proliferation and viability assay was employed to assess DβE inhibitor activity using trypan blue staining. LnCap cells (4×10^4 cells/well) were seeded in 96 well plates. Different concentrations of the DβE inhibitor or the Asp-Glu (D-E) substrate were added to the media at the concentrations indicated in FIG. 13A. The % cell viability was determined 48 hours after treatment as the number of living cells (unstained) divided by total cells count (stain+unstained cells).
The cytotoxic effect of methotrexate was assessed with and without the presence of the PSMA inhibitor (D-β-E) or PSMA substrate (D-E) using a cell proliferation and viability assay.

[7] = molecular target: NAALADase; conditions: read-out: Ki, inhibition of NAALADase activity; cited from earlier work
[8] = system: factor X; conditions: native Tissue Factor in phospholipid membrane environment; cited from earlier work

Fn-TF: fusion of fibronectin type III repeat domains 8-11 (SEQ ID NO:9) or domain 10 (SEQ ID NO:10) with Tissue Factor residues 3-218
cofactor enhancement of Factor VIIa amidolytic activity, compared with Tissue Factor [1]: Very little difference in amidolytic activity
proteolytic activity of the Factor VIIa complex toward Factor X [2]: increased proteolytic activity similar to the curve obtained with TF1-218
coagulation activity compared with CHO K1 cells expressing approximately 5×10^5 native Tissue Factor molecules ([3]; 75 nM Fn-TF, 10^5 CHO K1 cells): approximately the same level of coagulation activity
coagulation activity ([3]; approximately 100,000 Fn-TF:integrin complexes per cell, CHO K1 cells): 40,000 milliunits
coagulation time ([3]; approximately 100,000 Fn-TF:integrin complexes per cell, CHO K1 cells, human plasma): about 20 seconds
Fn-TF molecules bound per cell ([4]; 75 nM Fn-TF incubated with 10^5 CHO K1 cells in 100 ul): approximately 5×10^5
association with CHO cells [4]: increasing amounts of Fn-TF become associated with CHO cells
LD50 (median lethal dose) [5]: about 8 ug

RGDS: RGDS (SEQ ID NO: 17) peptide that binds integrin (A RGDS peptide.) [reference compound]
inhibition of Fn-TF coagulation activity by RGDS peptide ([3]; Fn-TF (20 nM)+RGDS (500 μM), CHO K1 cells): fully blocked; also recorded: almost completely inhibited

CN(Cc1cnc2nc(N)nc(N)c2n1)c1ccc(C(=O)N[C@@H](CCC(=O)O)C(=O)O)cc1 [MTX, methotrexate]
ID50/ID50* (enhancement of tumoricidal activity) [6]: 20

N[C@@H](Cn1oc(=O)[nH]c1=O)C(=O)O [Quisqalic acid, quisqalic acid]
Ki [7]: 1900 nM

B1: TF1-218: soluble extracellular domain of human Tissue Factor, SEQ ID NO:4 (protein, listed as Homo sapiens)
chain: SGTTNTVAAYNLTWKSTNFKTILEWEPKPVNQVYTVQISTKSGDWKSKCFYTTDTECDLTDEIVKDVKQTYLARVFSYPAGNVESTGSAGEPLYENSPEFTPYLETNLGQPTIQSFEQVGTKVNVTVEDERTLVRRNNTFLSLRDVFGKDLIYTLYYWKSSSSGKKTAKTNTNEFLIDVDKGENYCFSVQAVIPSRTVNRKSTDSPVECMGQEKGEFR
association with CHO cells [4]: no demonstrable association
LD50 (median lethal dose) [5]: greater than 500 ug

B2: truncated Tissue Factor: recombinant Tissue Factor containing only the extracellular domain, 219 amino acids, soluble (protein, listed as Homo sapiens)
chain: SGTTNTVAAYNLTWKSTNFKTILEWEPKPVNQVYTVQISTKSGDWKSKCFYTTDTECDLTDEIVKDVKQTYLARVFSYPAGNVESTGSAGEPLYENSPEFTPYLETNLGQPTIQSFEQVGTKVNVTVEDERTLVRRNNTFLSLRDVFGKDLIYTLYYWKSSSSGKKTAKTNTNEFLIDVDKGENYCFSVQAVIPSRTVNRKSTDSPVECMGQEKGEFRE
times less factor X-activating activity than native Tissue Factor [8]: approximately 10^5

From patent US7399743B2, “Targeted thrombosis” (The Scripps Research Institute, priority 2001, dated 2008)
